Measurements from US10336702B2, “Pharmaceutically active compounds” (BERGENBIO ASA, priority 2015, dated 2019).

How the values were obtained:
Akt1 = biological target: T1, Akt1 (Homo sapiens, UniProt P31749); test: Akt activation assay (PDK1-mediated activation, LANCE Ultra crosstide TR-FRET), Akt1; format: biochemical; details: read-out: Biological Assay 1 IC50 (nM) Akt1
T1 construct: unspecified tag, removed (detagged) (cleaved yes); purchased SignalChem and Proteros (Akt1); Merck Millipore (PDK1) 14-452 (PDK1); none given for Akt1
Method in brief: (§1)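 Two-step cascade format: Akt1, Akt2 or Akt3 phosphorylates Ulight-crosstide (100 nM) only after activation by 5 nM PDK1 in presence of PtdIns(3,4,5)P3 vesicles and 100 μM ATP. Product quantified by Eu-antibody TR-FRET after 30 min reaction.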

Akt2 = biological target: T2, Akt2 (Homo sapiens, UniProt P31751); test: Akt activation assay (PDK1-mediated activation, LANCE Ultra crosstide TR-FRET), Akt2; format: biochemical; details: read-out: Biological Assay 1 IC50 (nM) Akt2
T2 construct: unspecified tag, removed (detagged) (cleaved yes); purchased SignalChem and Proteros (Akt2); Merck Millipore (PDK1) 14-452 (PDK1); none given for Akt2
Method in brief: as §1

Akt3 = biological target: T3, Akt3 (Homo sapiens, UniProt Q9Y243); test: Akt activation assay (PDK1-mediated activation, LANCE Ultra crosstide TR-FRET), Akt3; format: biochemical; details: read-out: Biological Assay 1 IC50 (nM) Akt3
T3 construct: unspecified tag, removed (detagged) (cleaved yes); purchased SignalChem and Proteros (Akt3); Merck Millipore (PDK1) 14-452 (PDK1); none given for Akt3
Method in brief: as §1

p-Akt1 in LNCaP cells = biological target: T4, p-Akt1 in LNCaP cells (Homo sapiens, UniProt P31749); test: Phospho-Akt cellular SureFire assay, p-Akt1 in LNCaP cells; format: cell-based; details: read-out: Biological Assay 2 IC50 (nM) Akt1 LNCaP
T4 construct: SureFire assays to detect cellular p-Akt1, p-Akt2 and p-Akt3 levels in WM115 cells (Akt2/3) and LNCaP cells (Akt1); endogenous in cells; host or cells: LNCaP (ECACC 89110211)
Method in brief: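 Phospho-Thr308 Akt1 detected by AlphaScreen SureFire proximity beads in LNCaP lysates after 15 min compound treatment at 37 °C in 0.1% FBS medium, unstimulated, 0.3% DMSO. Cells plated at 5×10^4/well overnight; IC50 from a 4-parameter equation.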

p-Akt2 in WM115 cells = biological target: T5, p-Akt2 in WM115 cells (Homo sapiens, UniProt P31751); test: Phospho-Akt cellular SureFire assay, p-Akt2 in WM115 cells; format: cell-based; details: insulin stimulated, read-out: Biological Assay 2 IC50 (nM) Akt2 WM115
T5 construct: SureFire assays to detect cellular p-Akt1, p-Akt2 and p-Akt3 levels in WM115 cells (Akt2/3) and LNCaP cells (Akt1); endogenous in cells; host or cells: WM115 (ECACC 91061232), insulin-stimulated
Method in brief: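 Readout is a bead-proximity SureFire assay pairing a pThr308 Akt antibody with a total Akt2 antibody, lysate and beads incubated 2 h plus 2 h at room temperature in the dark. Before lysis, serum-starved WM115 cells received 100 nM insulin (10 min), then test compound (15 min, 0.3% DMSO); IC50 by 4-parameter equation.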

p-Akt3 in WM115 cells = biological target: T6, p-Akt3 in WM115 cells (Homo sapiens, UniProt Q9Y243); test: Phospho-Akt cellular SureFire assay, p-Akt3 in WM115 cells; format: cell-based; details: insulin stimulated, read-out: Biological Assay 2 IC50 (nM) Akt3 WM115
T6 construct: SureFire assays to detect cellular p-Akt1, p-Akt2 and p-Akt3 levels in WM115 cells (Akt2/3) and LNCaP cells (Akt1); endogenous in cells; host or cells: WM115 (ECACC 91061232), insulin-stimulated
Method in brief: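 pThr308-Akt3 in lysates was quantified by bead-proximity SureFire detection, pairing a phospho-specific antibody with a total Akt3 antibody. Before lysis, WM115 cells in 0.1% FBS medium were treated for 15 min at 37 °C with compound (final DMSO 0.3%), following a 10 min stimulation with 100 nM insulin. IC50 was obtained by 4-parameter fitting.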

T5 sequence (P31751 whole entry): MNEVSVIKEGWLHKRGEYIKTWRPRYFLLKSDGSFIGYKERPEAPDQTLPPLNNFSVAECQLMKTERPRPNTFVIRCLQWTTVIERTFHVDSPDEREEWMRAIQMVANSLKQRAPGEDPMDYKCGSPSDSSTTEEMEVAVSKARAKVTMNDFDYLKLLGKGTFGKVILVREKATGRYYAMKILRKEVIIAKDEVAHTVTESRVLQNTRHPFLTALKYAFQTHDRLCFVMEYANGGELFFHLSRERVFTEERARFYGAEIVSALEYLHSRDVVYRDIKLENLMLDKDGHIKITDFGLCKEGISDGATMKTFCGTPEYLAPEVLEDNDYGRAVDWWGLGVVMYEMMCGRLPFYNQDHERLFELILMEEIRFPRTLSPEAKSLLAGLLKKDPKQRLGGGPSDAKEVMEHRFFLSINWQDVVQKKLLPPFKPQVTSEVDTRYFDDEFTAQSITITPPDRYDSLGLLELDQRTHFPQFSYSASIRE
T2 sequence (P31751 whole entry): as above
T1 sequence (P31749 whole entry): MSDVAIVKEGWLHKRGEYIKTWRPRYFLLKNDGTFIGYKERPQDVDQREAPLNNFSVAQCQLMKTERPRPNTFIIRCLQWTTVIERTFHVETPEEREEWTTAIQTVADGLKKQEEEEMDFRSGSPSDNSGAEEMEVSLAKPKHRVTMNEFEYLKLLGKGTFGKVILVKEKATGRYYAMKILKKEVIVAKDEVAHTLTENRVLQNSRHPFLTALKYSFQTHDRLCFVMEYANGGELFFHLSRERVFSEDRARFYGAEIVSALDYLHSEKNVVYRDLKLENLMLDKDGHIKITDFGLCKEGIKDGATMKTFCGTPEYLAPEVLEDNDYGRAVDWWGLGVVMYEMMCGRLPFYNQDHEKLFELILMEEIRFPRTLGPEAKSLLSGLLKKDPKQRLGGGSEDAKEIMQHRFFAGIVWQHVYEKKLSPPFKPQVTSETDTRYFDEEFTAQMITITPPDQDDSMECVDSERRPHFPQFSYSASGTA
T4 sequence (P31749 whole entry): as above
T3 sequence (Q9Y243 whole entry): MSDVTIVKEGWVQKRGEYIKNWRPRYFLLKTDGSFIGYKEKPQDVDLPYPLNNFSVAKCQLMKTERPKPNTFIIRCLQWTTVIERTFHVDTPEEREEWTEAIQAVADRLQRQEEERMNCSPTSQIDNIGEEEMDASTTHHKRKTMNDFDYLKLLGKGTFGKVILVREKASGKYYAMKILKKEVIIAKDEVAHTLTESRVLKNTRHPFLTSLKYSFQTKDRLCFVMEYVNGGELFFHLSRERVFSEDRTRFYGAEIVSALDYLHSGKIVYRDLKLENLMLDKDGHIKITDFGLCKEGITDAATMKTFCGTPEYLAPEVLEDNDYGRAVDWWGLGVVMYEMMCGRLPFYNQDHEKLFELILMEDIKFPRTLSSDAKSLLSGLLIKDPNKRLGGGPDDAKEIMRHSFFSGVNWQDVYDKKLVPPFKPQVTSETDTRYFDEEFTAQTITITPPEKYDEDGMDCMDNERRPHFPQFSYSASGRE
T6 sequence (Q9Y243 whole entry): as above

Row | IC50 (Akt1) | IC50 (Akt2) | IC50 (Akt3) | IC50 (p-Akt1 in LNCaP cells) | IC50 (p-Akt2 in WM115 cells) | IC50 (p-Akt3 in WM115 cells) | Structure (SMILES)
1 | > 30000 nM | 14000 nM | 170 nM | > 30000 nM | > 30000 nM | 230 nM | CC(=O)N(C)[C@H]1CC[C@H](CC(=O)Nc2cc(-c3ccsc3)c(-c3ccc(C4(N)CC4)c(F)c3)nn2)CC1 [Example 92, N-(6-(4-(1-aminocyclopropyl)-3-fluorophenyl)-5-(thiophen-3-yl)pyridazin-3-yl)-2-(trans-4-(N-methylacetamido)cyclohexyl)acetamide]
2 | 6200 nM | 260 nM | 30 nM | 6700 nM | 970 nM | 39 nM | CC(=O)N(C)[C@H]1CC[C@H](CC(=O)Nc2cnc(-c3ccc(C4(N)CCC4)cc3)c(-c3ccccc3)c2)CC1 [Example 10, N-(6-(4-(1-aminocyclobutyl)phenyl)-5-phenylpyridin-3-yl)-2-(trans-4-(N-methylacetamido)cyclohexyl)acetamide]
3 | 2400 nM | 74 nM | 4 nM | 2400 nM | 710 nM | 10 nM | CCOC(=O)N(C)[C@H]1CC[C@H](CC(=O)Nc2cc(-c3ccccc3)c(-c3ccc([C@]4(N)C[C@](C)(O)C4)cc3)nn2)CC1 [Example A80, Ethyl (trans-4-(2-((6-(4-(trans-1-amino-3-hydroxy-3-methylcyclobutyl)phenyl)-5-phenylpyridazin-3-yl)amino)-2-oxoethyl)cyclohexyl)(methyl)carbamate]
4 | > 30000 nM | 4100 nM | 61 nM | > 30000 nM | 6500 nM | 190 nM | CC(C)(N)c1ccc(-c2nnc(NC(=O)C[C@H]3CC[C@H](N4CCOC4=O)CC3)cc2-c2ccccc2)cc1 [Example 65, N-(6-(4-(2-aminopropan-2-yl)phenyl)-5-phenylpyridazin-3-yl)-2-(trans-4-(2-oxooxazolidin-3-yl)cyclohexyl)acetamide]
5 | > 30000 nM | > 15000 nM | 1700 nM | > 30000 nM | > 30000 nM | 440 nM | CC(=O)N(C)[C@H]1CC[C@H](CC(=O)Nc2cnc(-c3ccc(C(C)(C)N)c(F)c3)c(-c3ccccc3)c2)CC1 [Example 31, N-(6-(4-(2-aminopropan-2-yl)-3-fluorophenyl)-5-phenylpyridin-3-yl)-2-(trans-4-(N-methylacetamido)cyclohexyl)acetamide]
6 | 4600 nM | 210 nM | 8 nM | 5300 nM | 1400 nM | 26 nM | CC(C)N(C(=O)C1CC1)[C@H]1CC[C@H](CC(=O)Nc2cc(-c3ccccc3)c(-c3ccc([C@]4(N)C[C@](C)(O)C4)cc3)nn2)CC1 [Example 105, N-(trans-4-(2-((6-(4-(trans-1-amino-3-hydroxy-3-methylcyclobutyl)phenyl)-5-phenylpyridazin-3-yl)amino)-2-oxoethyl)cyclohexyl)-N-isopropylcyclopropanecarboxamide]
7 | > 30000 nM | 190 nM | 4 nM | > 30000 nM | 1700 nM | 40 nM | N[C@]1(c2ccc(-c3nnc(NC(=O)C[C@H]4CC[C@H](N5CCCC5=O)CC4)cc3-c3ccccc3)cc2)C[C@@H](F)C1 [Example 74, N-(6-(4-(trans-1-amino-3-fluorocyclobutyl)phenyl)-5-phenylpyridazin-3-yl)-2-(trans-4-(2-oxopyrrolidin-1-yl)cyclohexyl)acetamide]
8 | > 30000 nM | 11000 nM | 140 nM | > 30000 nM | > 30000 nM | 350 nM | CCC(=O)N(C)[C@H]1CC[C@H](CC(=O)Nc2cc(-c3ccsc3)c(-c3ccc(C4(N)CC4)c(F)c3)nn2)CC1 [Example A101, N-(trans-4-(2-((6-(4-(1-aminocyclopropyl)-3-fluorophenyl)-5-(thiophen-3-yl)pyridazin-3-yl)amino)-2-oxoethyl)cyclohexyl)-N-methylpropionamide]
9 | 1200 nM | 110 nM | 22 nM | 1100 nM | 350 nM | 6 nM | COC(=O)N(C)[C@H]1CC[C@H](CC(=O)Nc2cnc(-c3ccc([C@]4(N)C[C@](C)(O)C4)cc3)c(-c3ccccc3)c2)CC1 [Example 44, Methyl (trans-4-(2-((6-(4-(trans-1-amino-3-hydroxy-3-methylcyclobutyl)phenyl)-5-phenylpyridin-3-yl)amino)-2-oxoethyl)cyclohexyl)(methyl)carbamate]
10 | > 30000 nM | 5100 nM | 560 nM | > 15000 nM | 5400 nM | 260 nM | CN([C@H]1CC[C@H](CC(=O)Nc2cnc(-c3ccc(C(C)(C)N)cc3)c(-c3ccccc3)c2)CC1)S(C)(=O)=O [Example A25, N-(6-(4-(2-aminopropan-2-yl)phenyl)-5-phenylpyridin-3-yl)-2-(trans-4-(N-methylmethylsulfonamido)cyclo-hexyl)acetamide]
11 | > 30000 nM | > 24000 nM | 720 nM | > 30000 nM | > 21000 nM | 340 nM | CC(=O)N(C)[C@H]1CC[C@H](CC(=O)Nc2cnc(-c3ccc(C(C)(C)N)cc3)c(-c3ccsc3)c2)CC1 [Example 6, N-(6-(4-(2-aminopropan-2-yl)phenyl)-5-(thiophen-3-yl)pyridin-3-yl)-2-(trans-4-(N-methylacetamido)cyclohexyl)acetamide]
12 | > 30000 nM | 7300 nM | 73 nM | > 30000 nM | 7400 nM | 190 nM | CC(C)C(=O)N(C)[C@H]1CC[C@H](CC(=O)Nc2cnc(-c3ccc(C(C)(C)N)cc3)c(-c3ccccc3)c2)CC1 [Example 4, N-(trans-4-(2-((6-(4-(2-aminopropan-2-yl)phenyl)-5-phenylpyridin-3-yl)amino)-2-oxoethyl)cyclohexyl)-N-methylisobutyramide]
13 | 5900 nM | 230 nM | 14 nM | 2000 nM | 810 nM | 30 nM | N[C@]1(c2ccc(-c3ncc(NC(=O)C[C@H]4CC[C@H](N5CCOC5=O)CC4)cc3-c3ccccc3)cc2)C[C@@H](F)C1 [Example 78, N-(6-(4-(trans-1-amino-3-fluorocyclobutyl)phenyl)-5-phenylpyridin-3-yl)-2-(trans-4-(2-oxooxazolidin-3-yl)cyclohexyl)acetamide]
14 | > 23000 nM | 110 nM | 7 nM | 3300 nM | 440 nM | 5 nM | CCN(C(=O)C1CC1)[C@H]1CC[C@H](CC(=O)Nc2cc(-c3ccccc3)c(-c3ccc([C@]4(N)C[C@](C)(O)C4)cc3)nn2)CC1 [Example 114, N-(trans-4-(2-((6-(4-(trans-1-amino-3-hydroxy-3-methylcyclobutyl)phenyl)-5-phenylpyridazin-3-yl)amino)-2-oxoethyl)cyclohexyl)-N-ethylcyclopropanecarboxamide]
15 | > 13000 nM | 210 nM | 8 nM | 4000 nM | 1500 nM | 25 nM | CCN(C(C)=O)[C@H]1CC[C@H](CC(=O)Nc2cc(-c3ccccc3)c(-c3ccc([C@]4(N)C[C@](C)(O)C4)cc3)nn2)CC1 [Example 106, N-(6-(4-(trans-1-amino-3-hydroxy-3-methylcyclobutyl)phenyl)-5-phenylpyridazin-3-yl)-2-(trans-4-(N-ethylacetamido)cyclohexyl)acetamide]
